Legend:
B. subtilis 168 [1] = assay: fitness (endpoint OD595 vs no drug) (fraction); higher = more growth
In short: (§1)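 In 384-well plates at 37 °C, cultures began at OD595 0.01 in 30 µl, with 55 µl used for S. pneumoniae. OD595 readings every 30 min for 14 h were corrected by the first reading. Fitness divides the stationary-phase transition optical density by the robust mean of no-drug control wells. The result is capped at 1.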

S. aureus DSM 20231 [2] = assay: as above
In short: as §1

B. subtilis 168 [3] = assay: Bliss interaction score (quartile over a dose matrix) (fitness difference); higher = more antagonism (negative = synergy)
In short: (§2)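 Quartiles summarise the Bliss score over technical, biological and donor/recipient replicates, where the score is observed minus expected fitness under a product model. Expected fitness uses single-drug values inferred from combination data. Fitness is OD595 at entry into stationary phase over the plate's robust no-drug mean, capped at 1.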

S. aureus DSM 20231 [4] = assay: as above
In short: as §2

S. aureus Newman [5] = assay: as above
In short: as §2

S. pneumoniae D39V [6] = assay: as above
In short: as §2

S. aureus Newman [7] = assay: fitness (endpoint OD595 vs no drug) (fraction); higher = more growth; conditions: main component drawn
In short: as §1

S. pneumoniae D39V [8] = assay: as above; conditions: main component drawn
In short: as §1
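Throughout, for Bliss interaction score (quartile over a dose matrix): first quartile when negative (synergy) and third quartile when positive (antagonism).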

CN(N=O)C(=O)N[C@@H](C=O)[C@@H](O)[C@H](O)[C@H](O)CO [Streptozotocin] + COc1cc(Cc2cnc(N)nc2N)cc(OC)c1OC [Trimethoprim]
fitness, one replicate
Conditions	first compound 0.15 µg/mL	first compound 0.3 µg/mL	first compound 0.6 µg/mL
B. subtilis 168 [1], partner 0.1 µg/mL	0.903	0.871	0.9
B. subtilis 168 [1], partner 0.125 µg/mL	0.748	0.728	0.731
B. subtilis 168 [1], partner 0.2 µg/mL	0.758	0.703	0.805
B. subtilis 168 [1], partner 0.4 µg/mL	0.523	0.536	0.521
S. aureus DSM 20231 [2], partner 0.125 µg/mL	0.645	0.666	0.602

fitness
Conditions	first compound 0.15 µg/mL	first compound 0.3 µg/mL	first compound 0.6 µg/mL
B. subtilis 168 [1], partner 0.5 µg/mL	0.51	0.496	0.501
S. aureus DSM 20231 [2], partner 0.25 µg/mL	0.549	0.557	0.493
S. aureus DSM 20231 [2], partner 0.5 µg/mL	0.0352	0.0171	0.0159
S. aureus DSM 20231 [2], partner 1 µg/mL	0.0265	0.0265	0.0187

Conditions	Bliss interaction score
B. subtilis 168 [3]	0.062
S. aureus DSM 20231 [4]	-0.0675
S. aureus Newman [5]	-0.12
S. pneumoniae D39V [6]	-0.125

Cc1cc(NS(=O)(=O)c2ccc(N)cc2)no1 [Sulfamethoxazol] + COc1cc(Cc2cnc(N)nc2N)cc(OC)c1OC [Trimethoprim]
fitness, one replicate
Conditions	first compound 0.5 µg/mL	first compound 1 µg/mL	first compound 2 µg/mL	first compound 4 µg/mL
B. subtilis 168 [1], partner 0.1 µg/mL	–	0.607	0.473	0.373
B. subtilis 168 [1], partner 0.125 µg/mL	0.481	–	–	0.285
B. subtilis 168 [1], partner 0.2 µg/mL	–	0.489	0.374	0.353
B. subtilis 168 [1], partner 0.25 µg/mL	0.389	–	–	–
B. subtilis 168 [1], partner 0.4 µg/mL	–	0.343	0.318	0.352
B. subtilis 168 [1], partner 0.5 µg/mL	0.299	–	–	–
B. subtilis 168 [1], partner 1 µg/mL	–	0.37	0.245	0.226
B. subtilis 168 [1], partner 2 µg/mL	–	0.323	0.163	0.109
S. aureus DSM 20231 [2], partner 0.125 µg/mL	–	0.534	0.22	0.041

fitness
Conditions	first compound 1 µg/mL	first compound 2 µg/mL	first compound 4 µg/mL
B. subtilis 168 [1], partner 0.125 µg/mL	0.375	0.305	–
B. subtilis 168 [1], partner 0.25 µg/mL	0.351	0.376	–
B. subtilis 168 [1], partner 0.5 µg/mL	0.35	0.337	0.288
S. aureus DSM 20231 [2], partner 0.25 µg/mL	0.0669	0.0417	0.023
S. aureus DSM 20231 [2], partner 0.5 µg/mL	0.015	0.0145	0.0126
S. aureus DSM 20231 [2], partner 1 µg/mL	0.0332	0.0147	0.013

Conditions	Bliss interaction score
B. subtilis 168 [3]	-0.173
S. aureus DSM 20231 [4]	-0.481
S. aureus Newman [5]	0.0676
S. pneumoniae D39V [6]	-0.364

CNC(C)C1CCC(N)C(OC2C(N)CC(N)C(OC3OCC(C)(O)C(NC)C3O)C2O)O1 (configuration not stated) [Gentamicin] + CN(C)c1cc(NC(=O)CNC(C)(C)C)c(O)c2c1C[C@H]1C[C@H]3[C@H](N(C)C)C(O)=C(C(N)=O)C(=O)[C@@]3(O)C(O)=C1C2=O [Tigecycline]
fitness
Conditions	partner 0.039 µg/mL	partner 0.078 µg/mL	partner 0.156 µg/mL
B. subtilis 168 [1], first compound 0.0625 µg/mL, main component drawn	0.967	0.908	0.907
B. subtilis 168 [1], first compound 0.25 µg/mL, main component drawn	0.186	0.0549	0.0589
S. aureus Newman [7], first compound 0.375 µg/mL, one replicate	0.935	0.97	≥ 1
S. aureus Newman [7], first compound 0.75 µg/mL, one replicate	0.933	≥ 1	0.969
S. aureus Newman [7], first compound 1.5 µg/mL, one replicate	0.953	0.966	0.964

fitness, B. subtilis 168 [1], one replicate, main component drawn
Conditions	first compound 0.0625 µg/mL	first compound 0.125 µg/mL	first compound 0.25 µg/mL
partner 0.125 µg/mL	≥ 1	≥ 1	0.0664
partner 0.25 µg/mL	0.91	0.891	0.315
partner 0.5 µg/mL	0.965	0.879	0.21

fitness
Conditions	partner 0.039 µg/mL	partner 0.078 µg/mL	partner 0.156 µg/mL	partner 0.325 µg/mL	partner 0.65 µg/mL	partner 1.3 µg/mL	partner 2.6 µg/mL
S. aureus Newman [7], first compound 0.5 µg/mL	0.974	0.949	0.935	–	–	–	–
S. aureus Newman [7], first compound 1 µg/mL	0.988	≥ 1	≥ 1	–	–	–	–
S. aureus Newman [7], first compound 2 µg/mL	≥ 1	≥ 1	≥ 1	–	–	–	–
S. pneumoniae D39V [8], first compound 2 µg/mL	–	–	–	0.94	0.9	0.909	0.897
S. pneumoniae D39V [8], first compound 4 µg/mL	–	–	–	0.943	0.945	0.96	0.903
S. pneumoniae D39V [8], first compound 8 µg/mL	–	–	–	0.971	0.911	0.977	0.858

main component drawn
Conditions	Bliss interaction score
B. subtilis 168 [3]	0.122
S. aureus DSM 20231 [4]	-0.0407
S. aureus Newman [5]	-0.0289
S. pneumoniae D39V [6]	0.0631
